Measured values taken from patent US12544450B2, “Medical uses of thiol-functionalized polyglycerol derivatives” (FREIE UNIVERSITÄT BERLIN, priority 2019, dated 2026).
Entries after “also recorded” stand apart in the source; their conditions may differ.

Test system: lung mucus collected from patients with cystic fibrosis
Test: Macrorheology of cystic fibrosis lung mucus after treatment with reducing agents
Parameters: species or system human
Settings: 30 min at 37° C.; for Viscosity of CF mucus after treatment: frequency sweep at 2% strain, FIG. 8
Method: In order to determine the mucolytic potential of thiol-functionalized polyglycerol derivatives the rheological properties of lung mucus, which was collected from patients with cystic fibrosis, were determined before and after treatment with different reducing or control agents. In addition, mucus from a healthy donor was used as control. Rheological measurements can be generally used to determine both elastic and viscous material components. Clinical samples were obtained freshly from cystic fibrosis (CF) patients at Charité Berlin and put directly on ice after collection. Then, the samples were mixed with a protease inhibitor cocktail (Roche) and aliquoted in 150 μl portions. The samples were then treated with different concentrations of freshly prepared reducing agents for 30 min at 37° C. Control samples were kept on ice throughout the incubation time or treated with phosphate-buffered saline (PBS) and incubated for 30 min at 37° C. After the incubation time all samples were kept on ice until use for the macrorheological studies. Here, a Kinexus instrument (Malvern) with a cone-and-plate setup was used. The cone geometry was 20 mm diameter and a […] angle. Each sample was run with an amplitude sweep mode at an oscillatory frequency of 1 Hz to determine the linear viscoelastic regime. In order to obtain viscosity parameters, measurements were repeated at 2% stain in a frequency sweep mode.

Row | Structure (SMILES) | Viscosity of CF mucus after treatment | Elastic modulus (G') of CF mucus after treatment (amplitude sweep at 1 Hz, FIG. 7)
1 | O[C@H](CS)[C@H](O)CS (racemic) [DTT, Dithiothreitol] | reduces the viscosity of CF mucus to level significantly below the viscosity level of mucus from healthy individuals; also recorded: completely destroys the viscosity properties of mucus | –
2 | CC(=O)N[C@@H](CS)C(=O)O [NAC, N-acetylcysteine] | does not show any enhanced mucolytic activity than PBS | comparably slight reduction of the elastic modulus like a treatment with physiological phosphate buffer (PBS)
